Test results as given in ChEMBL document CHEMBL4602696, “LMP2 Inhibitors as a Potential Treatment for Alzheimer's Disease” (J Med Chem, 2020).
Activity calls are given as the source filed them. No cut-off for these calls is given here.

Legend:
[1] = Inhibition of LMP7/Beta 5 subunit chymotrypsin-like activity in human RPM18226 cell lysates using Suc-LLVY-AMC as substrate after 1 hr by fluorescence based microplate reader analysis; assay type: cell-free; details: rpmi-8226
[2] = biological target: T1, Proteasome subunit beta type-9 (Homo sapiens, UniProt P28065); assay: Inhibition of LMP2 in human 20S immunoproteasome using Ac-PAL-AMC as substrate after 1 hr by fluorescence based microplate reader analysis
T1 sequence (P28065 whole entry): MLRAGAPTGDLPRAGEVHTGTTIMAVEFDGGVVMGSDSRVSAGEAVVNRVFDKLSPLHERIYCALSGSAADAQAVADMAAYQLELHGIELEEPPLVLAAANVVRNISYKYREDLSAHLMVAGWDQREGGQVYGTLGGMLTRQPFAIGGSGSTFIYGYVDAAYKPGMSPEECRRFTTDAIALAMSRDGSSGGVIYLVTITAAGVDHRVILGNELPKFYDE

[3] = biological target: T2, Proteasome subunit beta type-9 (Homo sapiens) (UniProt P28065); assay: Inhibition of LMP2 subunit in human DLD1 cells over expressing ABCB1 at 1 uM using Ac-PAL-AMC as substrate incubated for 4 hrs; assay type: cell-based; details: DLD-1
T2 sequence (whole entry): T1 sequence (P28065 whole entry)

[4] = biological target: T2, Proteasome subunit beta type-9 (Homo sapiens); assay: Inhibition of immunoproteasome LMP2 subunit in human DLD1 cells over expressing ABCB1 at 3 uM using Ac-PAL-AMC as substrate incubated for 4 hrs in presence of reversin-121; assay type: cell-based; details: DLD-1
[5] = biological target: T3, Proteasome subunit beta type-8 (Homo sapiens, UniProt P28062); assay: Inhibition of LMP7 in human 20S immunoproteasome using Ac-ANW-AMC as substrate after 1 hr by fluorescence based microplate reader analysis
T3 sequence (P28062 whole entry): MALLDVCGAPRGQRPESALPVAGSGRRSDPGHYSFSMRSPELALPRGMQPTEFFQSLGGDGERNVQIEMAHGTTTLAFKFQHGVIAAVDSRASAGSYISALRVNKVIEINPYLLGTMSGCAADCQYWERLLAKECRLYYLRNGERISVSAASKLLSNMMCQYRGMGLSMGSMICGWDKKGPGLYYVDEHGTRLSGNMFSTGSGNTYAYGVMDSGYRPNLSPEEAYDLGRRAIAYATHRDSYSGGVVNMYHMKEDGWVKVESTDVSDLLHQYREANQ

[6] = biological target: T4, Proteasome Macropain subunit MB1 (Homo sapiens, UniProt P28074); assay: Inhibition of Beta5 in human 20S […] usingAc-WLA-AMC as substrate after 1 hr by fluorescence based microplate reader analysis
T4 sequence (P28074 whole entry): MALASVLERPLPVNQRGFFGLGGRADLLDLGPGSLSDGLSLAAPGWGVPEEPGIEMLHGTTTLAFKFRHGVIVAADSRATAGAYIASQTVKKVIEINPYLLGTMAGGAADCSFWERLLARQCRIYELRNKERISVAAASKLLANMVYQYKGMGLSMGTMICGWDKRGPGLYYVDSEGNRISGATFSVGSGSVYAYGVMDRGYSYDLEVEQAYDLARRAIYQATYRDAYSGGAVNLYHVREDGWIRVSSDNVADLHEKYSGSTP

Row | SMILES | IC50 [1] | IC50 [2] | inhibition [3] | inhibition [4] | IC50 [5] | IC50 [6]
1 | CC(C)C[C@H](NC(=O)[C@H](Cc1ccccc1)NC(=O)[C@@H]1CCCN1C(=O)c1cccc(O)n1)C(=O)[C@@]1(C)CO1 | > 10000 nM | 1010 nM | – | – | – | –
2 | CC(C)C[C@H](NC(=O)[C@H](Cc1ccccc1)NC(=O)[C@@H]1CCCN1C(=O)CN1CCOCC1)C(=O)[C@@]1(C)CO1 | > 10000 nM | 1220 nM | – | – | – | –
3 | CCc1ccc(C[C@H](NC(=O)[C@@H]2CCCN2C(=O)CNC(C)=O)C(=O)N[C@@H](CC(C)C)C(=O)[C@@]2(C)CO2)cc1 | > 10000 nM | 134 nM | – | – | – | –
4 | CC(C)C[C@H](NC(=O)[C@H](CCc1ccccc1)NC(=O)[C@@H]1CCCN1C(=O)CNC(=O)c1cnccn1)C(=O)[C@@]1(C)CO1 | > 10000 nM | 131 nM | Active | – | – | –
5 | CC(C)C[C@H](NC(=O)[C@H](Cc1ccc(-c2ccccc2)cc1)NC(=O)[C@@H]1CCCN1C(=O)CNC(=O)c1cnccn1)C(=O)[C@@]1(C)CO1 | 10000 nM | 62.8 nM | – | – | – | –
6 | CC(=O)NCC(=O)N1CCCC[C@H]1C(=O)N[C@@H](Cc1ccccc1)C(=O)N[C@@H](CC(C)C)C(=O)[C@@]1(C)CO1 | 1310 nM | 123 nM | – | – | – | –
7 | CC(=O)NCC(=O)N1CCC[C@H]1C(=O)N[C@@H](Cc1ccc(C(C)(C)C)cc1)C(=O)N[C@@H](CC(C)C)C(=O)[C@@]1(C)CO1 | > 10000 nM | 121 nM | – | – | – | –
8 | Cc1ncc(C(=O)NCC(=O)N2CCC[C@H]2C(=O)N[C@@H](CCc2ccccc2)C(=O)N[C@@H](CC(C)C)C(=O)[C@@]2(C)CO2)s1 | > 10000 nM | 103 nM | – | – | – | –
9 | CC(C)C[C@H](NC(=O)[C@H](Cc1ccccc1)NC(=O)[C@@H]1CCCN1C(=O)CNC(=O)C(F)(F)F)C(=O)[C@@]1(C)CO1 | > 10000 nM | 131 nM | – | – | – | –
10 | CC(=O)NCC(=O)N1CCC[C@H]1C(=O)N[C@@H](Cc1ccccc1)C(=O)N[C@@H](CC1CCCCC1)C(=O)[C@@]1(C)CO1 | > 10000 nM | 201 nM | – | – | – | –
11 | CC(=O)NCC(=O)N1CC(F)(F)C[C@H]1C(=O)N[C@@H](Cc1ccccc1)C(=O)N[C@@H](CC(C)C)C(=O)[C@@]1(C)CO1 | > 10000 nM | 71.8 nM | – | – | – | –
12 | COc1cnc(C(=O)NCC(=O)N2CCC[C@H]2C(=O)N[C@@H](Cc2ccccc2)C(=O)N[C@@H](CC(C)C)C(=O)[C@@]2(C)CO2)cn1 | > 10000 nM | 111 nM | – | – | – | –
13 | CC(=O)NCC(=O)N1CCC[C@H]1C(=O)N[C@@H](Cc1ccncc1)C(=O)N[C@@H](CC(C)C)C(=O)[C@@]1(C)CO1 | 10000 nM | 122 nM | – | – | – | –
14 | CCCC[C@H](NC(=O)[C@@H]1CCCN1C(=O)CNC(C)=O)C(=O)N[C@@H](CC(C)C)C(=O)[C@@]1(C)CO1 | > 10000 nM | 120 nM | – | – | – | –
15 | CC(=O)NCC(=O)N1CCC[C@H]1C(=O)N[C@@H](CO)C(=O)N[C@@H](CC(C)C)C(=O)[C@@]1(C)CO1 | > 10000 nM | 120 nM | – | – | – | –
16 | CC(C)C[C@H](NC(=O)[C@H](Cc1ccccc1)NC(=O)[C@@H]1CCCN1C(=O)CNC(=O)c1cccc(O)n1)C(=O)[C@@]1(C)CO1 | > 10000 nM | 143 nM | – | – | – | –
17 | CC(C)C[C@H](NC(=O)[C@H](Cc1ccccc1)NC(=O)[C@@H]1CCCN1C(=O)CNS(C)(=O)=O)C(=O)[C@@]1(C)CO1 | > 10000 nM | 115 nM | – | – | – | –
18 | CC(=O)NCC(=O)N1CCC[C@H]1C(=O)N[C@@H](Cc1ccc(-c2ccccc2)cc1)C(=O)N[C@@H](CC(C)C)C(=O)[C@@]1(C)CO1 | 5300 nM | 21.7 nM | – | – | – | –
19 | Cc1ncc(C(=O)NCC(=O)N2CCC[C@H]2C(=O)N[C@@H](Cc2ccc(-c3ccccc3)cc2)C(=O)N[C@@H](CC(C)C)C(=O)[C@@]2(C)CO2)s1 | 10000 nM | 115 nM | Active | – | – | –
20 | CC(=O)NCC(=O)N1CCC[C@H]1C(=O)N[C@@H](Cc1ccc(NC(=O)CN2CCOCC2)cc1)C(=O)N[C@@H](CC(C)C)C(=O)[C@@]1(C)CO1 | > 10000 nM | 90.9 nM | – | – | – | –

Row | SMILES | IC50 [1] | IC50 [2] | inhibition [3] | inhibition [4] | IC50 [5] | IC50 [6]
21 | CC(=O)NCC(=O)N1C[C@H](F)C[C@H]1C(=O)N[C@@H](Cc1ccccc1)C(=O)N[C@@H](CC(C)C)C(=O)[C@@]1(C)CO1 | > 10000 nM | 151 nM | – | – | – | –
22 | C[C@]1(C(=O)[C@H](Cc2ccccc2)NC(=O)[C@H](CO)NC(=O)c2cccc(=O)[nH]2)CO1 | > 10000 nM | 158 to 162 nM | inactive | Active | > 10000 nM | > 10000 nM
23 | Cc1ncc(C(=O)NCC(=O)N2CCC[C@H]2C(=O)N[C@@H](Cc2ccccc2)C(=O)N[C@@H](CC(C)C)C(=O)[C@@]2(C)CO2)s1 | > 10000 nM | 106 nM | – | – | – | –
24 | CC(=O)NCC(=O)N1CCC[C@H]1C(=O)N[C@@H](Cc1ccccc1)C(=O)N[C@@H](CC(C)C)C(=O)[C@]1(C)CO1 | – | – | – | – | > 10000 nM | > 10000 nM
25 | CC(=O)NCC(=O)N1CC(=O)C[C@H]1C(=O)N[C@@H](Cc1ccccc1)C(=O)N[C@@H](CC(C)C)C(=O)[C@@]1(C)CO1 | > 10000 nM | 622 nM | – | – | – | –
26 | Cc1cc(C(=O)NCC(=O)N2CCC[C@H]2C(=O)N[C@@H](CCc2ccccc2)C(=O)N[C@@H](CC(C)C)C(=O)[C@@]2(C)CO2)no1 | 10000 nM | 132 nM | – | – | – | –
27 | CC(=O)NCC(=O)N1CCC[C@H]1C(=O)N[C@@H](Cc1ccc(F)cc1)C(=O)N[C@@H](CC(C)C)C(=O)[C@@]1(C)CO1 | > 10000 nM | 82 nM | – | – | – | –
28 | CC(=O)NCC(=O)N1CCC[C@H]1C(=O)N[C@@H](Cc1ccc2ccccc2c1)C(=O)N[C@@H](CC(C)C)C(=O)[C@@]1(C)CO1 | > 10000 nM | 33.5 nM | – | – | – | –
29 | CC(C)C[C@H](NC(=O)[C@H](Cc1ccccc1)NC(=O)[C@@H]1CCCN1C(=O)CN1CCOCC1=O)C(=O)[C@@]1(C)CO1 | > 10000 nM | 1040 nM | – | – | – | –
30 | CC(=O)NCC(=O)N1CCC[C@H]1C(=O)N[C@@H](Cc1ccccc1)C(=O)N[C@@H](CC(C)C)C(=O)[C@@]1(C)CO1 | > 10000 nM | – | inactive | Active | > 10000 nM | > 10000 nM
31 | CC(=O)NCC(=O)N1CCC[C@@]1(C)C(=O)N[C@@H](Cc1ccccc1)C(=O)N[C@@H](CC(C)C)C(=O)[C@@]1(C)CO1 | > 10000 nM | 152 nM | – | – | – | –
32 | CC(=O)NCC(=O)N1CCC[C@H]1C(=O)N[C@@H](Cc1cccc2ccccc12)C(=O)N[C@@H](CC(C)C)C(=O)[C@@]1(C)CO1 | > 10000 nM | 29.7 nM | – | – | – | –
33 | CC(=O)NCC(=O)N1CCC[C@H]1C(=O)N[C@@H](Cc1ccccc1)C(=O)N[C@@H](Cc1ccccc1)C(=O)[C@@]1(C)CO1 | > 10000 nM | 342 nM | – | – | – | –
34 | CC(C)C[C@H](NC(=O)[C@H](Cc1ccc2ccccc2c1)NC(=O)[C@@H]1CCCN1C(=O)CNC(=O)c1cnccn1)C(=O)[C@@]1(C)CO1 | 5760 nM | 90.1 nM | – | – | – | –
35 | CC(=O)NCC(=O)N1CCC[C@H]1C(=O)N[C@@H](Cc1ccc(NC(=O)c2cnccn2)cc1)C(=O)N[C@@H](CC(C)C)C(=O)[C@@]1(C)CO1 | > 10000 nM | 33.2 nM | – | – | – | –
36 | Cc1ncc(C(=O)NCC(=O)N2CCC[C@H]2C(=O)N[C@@H](Cc2ccc3ccccc3c2)C(=O)N[C@@H](CC(C)C)C(=O)[C@@]2(C)CO2)s1 | > 10000 nM | 183 nM | – | – | – | –
37 | CC(=O)NCC(=O)N1CCC[C@H]1C(=O)N[C@@H](Cc1ccc(NC(=O)c2ccccc2)cc1)C(=O)N[C@@H](CC(C)C)C(=O)[C@@]1(C)CO1 | 5080 nM | 72 nM | – | – | – | –
38 | CC(=O)NCC(=O)N1CC[C@H]1C(=O)N[C@@H](Cc1ccccc1)C(=O)N[C@@H](CC(C)C)C(=O)[C@@]1(C)CO1 | > 10000 nM | 100 nM | – | – | – | –
39 | CC(=O)NCC(=O)N1CCC[C@H]1C(=O)N[C@@H](CCc1ccccc1)C(=O)N[C@@H](CC(C)C)C(=O)[C@@]1(C)CO1 | > 10000 nM | 58 nM | – | – | – | –
